From patent publication US20250297233A1, “GENETICALLY ENCODED SYSTEMS FOR GENERATING OXYGEN IN LIVING EUKARYOTIC CELLS” (The General Hospital Corporation, priority 2022, published 2025)
Where two headings read alike, the source gives them in different places.

Columns and labels:
[1] = test system: HeLa cells; test: Seahorse oxygen and oxygen consumption rate measurement in intact cells; type: cell-based, human; conditions: 1% ambient oxygen
[2] = test system: yeast; conditions: read-out: dose required to achieve 50% growth inhibition; yeast (Kwolek-Mirek 2011); cited from earlier work
[3] = test system: HeLa cells; conditions: read-out: concentration giving 50% decrease in viability; HeLa cells (GFP), treated for 3 days, FIG. 3A
Procedure: Cell counts and viability were assessed after 3 days of growth using a Vi-Cell BLU Cell Viability Analyzer. Shown is the mean+/−s.d. of triplicate measurements.
HeLa cells were trypsinized, counted, and prepared at 10^5 cells/ml in normal growth media. […] Cells were seeded in 24-well plates, with triplicate wells for each condition. 500 ul of each 2× chlorite/media preparation was first added to the plate. 500 ul of cell suspension (5×10^4 cells) was then added to each well. The plate was gently mixed, and cells were grown for 3 days in a 37° C./5% CO2 incubator. After 3 days, cells were washed briefly with 500 ul of PBS, trypsinized with 250 ul TrypLE Express, and resuspended with 750 ul of normal growth media to 1 ml total volume. In wells containing a majority of visibly dead, floating cells, cells were resuspended by vigorously pipetting up and down rather than by trypsinization. 200 ul of each cell suspension was then quantified using a Vi-Cell BLU Cell Viability Analyzer (Beckman Coulter).

[4] = test system: NdCld; conditions: NdCld in E. coli extracts (Maixner 2008); cited from earlier work
[5] = test system: NdCld; conditions: human digitonin-permeabilized HeLa cell extract expressing NdCld, initial rates of oxygen evolution
Procedure: HeLa cells were pelleted at 800×g for 3 min, washed with PBS, pelleted again, and then resuspended in assay buffer (125 mM KCl, 2 mM K2HPO4, 1 mM MgCl2, 2 0 mM HEPES pH 7.2, 5 mM glutamate, 5 mM malate, and 0.01% digitonin) at a concentration of 5×10^6 cells/ml. Oxygen production was measured using a FireSting optical oxygen meter connected to a sensor vial. One ml of cell solution (5×10^6 cells) was used for each measurement. Measurements were performed under ambient air conditions with stirring of the cell solution. […] The initial rates were determined from the resulting oxygen traces using up to 20 seconds of the linear portion of the trace via the ICEKAT web server (Olp, 2020). The means of 3 replicate rates were plotted against the chlorite concentrations to estimate the KM.
We next characterized the activity of this protein in human cell extracts. […] Doses spanning 10 uM to 1 mM were used, as previous studies have shown that higher chlorite concentrations lead to inactivation of the enzyme (Hofbauer 2014). We monitored oxygen evolution using an optical probe in a well-stirred, air saturated cuvette.

[6] = test system: NdCld; conditions: purified bacterial expressed NdCld (Kostan 2010; Hofbauer 2014); cited from earlier work
[7] = target: sodium iodide symporter (NIS) (Rattus norvegicus, UniProt Q63008); conditions: read-out: Km of NIS transport; Xenopus oocytes (Eskandari 1997); cited from earlier work
Sequence of sodium iodide symporter (NIS) (Q63008 whole entry): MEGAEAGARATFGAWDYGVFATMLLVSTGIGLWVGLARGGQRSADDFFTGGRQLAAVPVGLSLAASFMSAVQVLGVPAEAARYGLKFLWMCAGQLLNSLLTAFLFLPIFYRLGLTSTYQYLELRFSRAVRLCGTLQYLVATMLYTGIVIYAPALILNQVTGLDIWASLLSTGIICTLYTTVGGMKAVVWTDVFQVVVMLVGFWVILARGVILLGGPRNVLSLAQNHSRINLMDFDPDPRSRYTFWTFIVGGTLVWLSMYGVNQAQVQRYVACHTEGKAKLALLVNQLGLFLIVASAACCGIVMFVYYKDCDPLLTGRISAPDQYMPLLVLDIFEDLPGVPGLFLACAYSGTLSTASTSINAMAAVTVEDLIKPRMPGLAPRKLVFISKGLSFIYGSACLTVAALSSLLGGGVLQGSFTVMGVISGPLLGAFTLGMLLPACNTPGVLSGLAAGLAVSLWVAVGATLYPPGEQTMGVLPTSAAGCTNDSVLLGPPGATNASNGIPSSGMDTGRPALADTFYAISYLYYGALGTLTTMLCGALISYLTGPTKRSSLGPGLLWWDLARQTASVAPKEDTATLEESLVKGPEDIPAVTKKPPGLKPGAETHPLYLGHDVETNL

Sequence of NdCld (as listed by the source): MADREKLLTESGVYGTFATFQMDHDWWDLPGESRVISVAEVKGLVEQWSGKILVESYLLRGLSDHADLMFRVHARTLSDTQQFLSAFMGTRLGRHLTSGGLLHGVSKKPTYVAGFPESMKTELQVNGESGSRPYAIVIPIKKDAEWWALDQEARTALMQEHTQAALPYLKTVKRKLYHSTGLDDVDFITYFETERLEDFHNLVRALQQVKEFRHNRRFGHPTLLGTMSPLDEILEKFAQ

Compound	oxygen generation (decline in apparent OCR) ([1]; HeLa cells co-expressing NdCld and NIS, piericidin+antimycin, dose response beginning with 1 mM chlorite)	oxygen evolution in intact cells ([1]; HeLa cells expressing FLAG-NdCld+NIS (not mCherry), 500 uM or 1 mM chlorite)	IC50 [2]	IC50 [3]	Km [4]	Vmax [5]	Km ([5]; read-out: Km for chlorite)	Km [6]	Km [7]
sodium chlorite	robust oxygen production	observed oxygen evolution	4000 µM	~2000 µM	15800 µM	0.37 umoles/second/100,000 cells	560 µM	58 to 69 µM	
[O-][Cl+2]([O-])O [chlorate]									277 µM
